The target in assay [1] is T1, PDZ-domain polypeptide (GST/PDZ fusion protein) (Homo sapiens, UniProt Q5TCQ9).
T1 construct: made in house; host or cells: E. coli (DH5alpha, BL21 or JM109)
T1 sequence (Q5TCQ9 1-1481): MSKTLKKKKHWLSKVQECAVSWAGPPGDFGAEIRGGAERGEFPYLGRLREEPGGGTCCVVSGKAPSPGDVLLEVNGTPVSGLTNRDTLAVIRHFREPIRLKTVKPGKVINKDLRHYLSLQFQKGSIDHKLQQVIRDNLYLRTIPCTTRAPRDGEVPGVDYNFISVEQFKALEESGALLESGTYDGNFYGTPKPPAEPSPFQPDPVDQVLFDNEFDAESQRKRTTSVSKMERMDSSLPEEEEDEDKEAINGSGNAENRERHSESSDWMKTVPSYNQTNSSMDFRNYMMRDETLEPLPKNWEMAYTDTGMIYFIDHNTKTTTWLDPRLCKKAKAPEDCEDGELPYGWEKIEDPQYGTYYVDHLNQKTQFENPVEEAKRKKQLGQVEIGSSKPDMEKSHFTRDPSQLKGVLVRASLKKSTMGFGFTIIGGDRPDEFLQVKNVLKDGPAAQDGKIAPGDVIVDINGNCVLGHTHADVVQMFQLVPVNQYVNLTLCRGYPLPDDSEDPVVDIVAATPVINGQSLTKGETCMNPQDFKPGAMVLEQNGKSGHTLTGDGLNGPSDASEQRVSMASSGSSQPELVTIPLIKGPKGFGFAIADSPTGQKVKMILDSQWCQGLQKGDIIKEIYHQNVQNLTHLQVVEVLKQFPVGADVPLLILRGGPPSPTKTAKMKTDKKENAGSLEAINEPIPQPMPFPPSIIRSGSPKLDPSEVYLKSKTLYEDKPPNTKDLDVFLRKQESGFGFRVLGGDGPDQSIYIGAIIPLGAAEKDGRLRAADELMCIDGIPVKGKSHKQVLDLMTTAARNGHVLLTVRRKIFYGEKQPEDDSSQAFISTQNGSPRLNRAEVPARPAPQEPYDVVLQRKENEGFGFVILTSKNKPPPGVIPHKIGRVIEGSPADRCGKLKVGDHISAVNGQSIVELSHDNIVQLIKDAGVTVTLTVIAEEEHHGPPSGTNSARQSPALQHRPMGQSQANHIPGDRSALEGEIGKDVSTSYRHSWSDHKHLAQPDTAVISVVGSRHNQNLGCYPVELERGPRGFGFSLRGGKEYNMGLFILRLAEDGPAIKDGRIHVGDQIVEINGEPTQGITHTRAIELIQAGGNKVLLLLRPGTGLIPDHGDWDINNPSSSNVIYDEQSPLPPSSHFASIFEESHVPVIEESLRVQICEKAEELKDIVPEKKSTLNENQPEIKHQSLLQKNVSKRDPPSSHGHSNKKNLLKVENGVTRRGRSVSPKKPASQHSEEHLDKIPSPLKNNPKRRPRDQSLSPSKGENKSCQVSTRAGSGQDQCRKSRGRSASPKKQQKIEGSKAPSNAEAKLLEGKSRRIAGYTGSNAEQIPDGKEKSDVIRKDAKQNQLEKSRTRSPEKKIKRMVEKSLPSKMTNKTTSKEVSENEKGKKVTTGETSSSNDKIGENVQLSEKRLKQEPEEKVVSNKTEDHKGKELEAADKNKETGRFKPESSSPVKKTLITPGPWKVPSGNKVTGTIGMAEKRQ
As to the kind of experiment: Apparent affinity (Kd) by titration of PL peptide in the G assay. Type of assay: binding. The gist of the method:
(§1)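 A fixed concentration of GST/PDZ fusion protein, 5 ug/ml by default, was mixed in solution with increasing labeled PL peptide (e.g. 0.1 uM-1 mM). Reaction times ranged from 10 minutes to 2 days at 4-37° C. Complexes were separated from free peptide and detected via the label as in the G assay, apparent affinity coming from the saturating concentration.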

Assay [2] addresses T2, PDZ-domain polypeptide (GST/PDZ fusion protein) (Homo sapiens, UniProt Q12923).
T2 construct: made in house; host or cells: E. coli (DH5alpha, BL21 or JM109)
Described as above. Type of assay: binding. In short, it runs like this:
as §1

The mark [3] stands for this setting: PDZ PTPL-1, PDZ Domain 2, read-out: Peptide Optimal Conc (Kd by titration of the PL peptide).

From US20050282743A1, “Molecular interactions in cells” (Arbor Vita Corporation, priority 2001, published 2005) come the findings set out here.

The structures appear in SMILES notation. Read-outs that look alike come from different tables or passages of the source. Peptide text beside a SMILES is read from it. * marks the point of attachment. Biotin = O=C1N[C@H]2[C@H](CS[C@H]2CCCCC(=O)*)N1

T2 sequence (Q12923 whole entry, the tested form may be a part): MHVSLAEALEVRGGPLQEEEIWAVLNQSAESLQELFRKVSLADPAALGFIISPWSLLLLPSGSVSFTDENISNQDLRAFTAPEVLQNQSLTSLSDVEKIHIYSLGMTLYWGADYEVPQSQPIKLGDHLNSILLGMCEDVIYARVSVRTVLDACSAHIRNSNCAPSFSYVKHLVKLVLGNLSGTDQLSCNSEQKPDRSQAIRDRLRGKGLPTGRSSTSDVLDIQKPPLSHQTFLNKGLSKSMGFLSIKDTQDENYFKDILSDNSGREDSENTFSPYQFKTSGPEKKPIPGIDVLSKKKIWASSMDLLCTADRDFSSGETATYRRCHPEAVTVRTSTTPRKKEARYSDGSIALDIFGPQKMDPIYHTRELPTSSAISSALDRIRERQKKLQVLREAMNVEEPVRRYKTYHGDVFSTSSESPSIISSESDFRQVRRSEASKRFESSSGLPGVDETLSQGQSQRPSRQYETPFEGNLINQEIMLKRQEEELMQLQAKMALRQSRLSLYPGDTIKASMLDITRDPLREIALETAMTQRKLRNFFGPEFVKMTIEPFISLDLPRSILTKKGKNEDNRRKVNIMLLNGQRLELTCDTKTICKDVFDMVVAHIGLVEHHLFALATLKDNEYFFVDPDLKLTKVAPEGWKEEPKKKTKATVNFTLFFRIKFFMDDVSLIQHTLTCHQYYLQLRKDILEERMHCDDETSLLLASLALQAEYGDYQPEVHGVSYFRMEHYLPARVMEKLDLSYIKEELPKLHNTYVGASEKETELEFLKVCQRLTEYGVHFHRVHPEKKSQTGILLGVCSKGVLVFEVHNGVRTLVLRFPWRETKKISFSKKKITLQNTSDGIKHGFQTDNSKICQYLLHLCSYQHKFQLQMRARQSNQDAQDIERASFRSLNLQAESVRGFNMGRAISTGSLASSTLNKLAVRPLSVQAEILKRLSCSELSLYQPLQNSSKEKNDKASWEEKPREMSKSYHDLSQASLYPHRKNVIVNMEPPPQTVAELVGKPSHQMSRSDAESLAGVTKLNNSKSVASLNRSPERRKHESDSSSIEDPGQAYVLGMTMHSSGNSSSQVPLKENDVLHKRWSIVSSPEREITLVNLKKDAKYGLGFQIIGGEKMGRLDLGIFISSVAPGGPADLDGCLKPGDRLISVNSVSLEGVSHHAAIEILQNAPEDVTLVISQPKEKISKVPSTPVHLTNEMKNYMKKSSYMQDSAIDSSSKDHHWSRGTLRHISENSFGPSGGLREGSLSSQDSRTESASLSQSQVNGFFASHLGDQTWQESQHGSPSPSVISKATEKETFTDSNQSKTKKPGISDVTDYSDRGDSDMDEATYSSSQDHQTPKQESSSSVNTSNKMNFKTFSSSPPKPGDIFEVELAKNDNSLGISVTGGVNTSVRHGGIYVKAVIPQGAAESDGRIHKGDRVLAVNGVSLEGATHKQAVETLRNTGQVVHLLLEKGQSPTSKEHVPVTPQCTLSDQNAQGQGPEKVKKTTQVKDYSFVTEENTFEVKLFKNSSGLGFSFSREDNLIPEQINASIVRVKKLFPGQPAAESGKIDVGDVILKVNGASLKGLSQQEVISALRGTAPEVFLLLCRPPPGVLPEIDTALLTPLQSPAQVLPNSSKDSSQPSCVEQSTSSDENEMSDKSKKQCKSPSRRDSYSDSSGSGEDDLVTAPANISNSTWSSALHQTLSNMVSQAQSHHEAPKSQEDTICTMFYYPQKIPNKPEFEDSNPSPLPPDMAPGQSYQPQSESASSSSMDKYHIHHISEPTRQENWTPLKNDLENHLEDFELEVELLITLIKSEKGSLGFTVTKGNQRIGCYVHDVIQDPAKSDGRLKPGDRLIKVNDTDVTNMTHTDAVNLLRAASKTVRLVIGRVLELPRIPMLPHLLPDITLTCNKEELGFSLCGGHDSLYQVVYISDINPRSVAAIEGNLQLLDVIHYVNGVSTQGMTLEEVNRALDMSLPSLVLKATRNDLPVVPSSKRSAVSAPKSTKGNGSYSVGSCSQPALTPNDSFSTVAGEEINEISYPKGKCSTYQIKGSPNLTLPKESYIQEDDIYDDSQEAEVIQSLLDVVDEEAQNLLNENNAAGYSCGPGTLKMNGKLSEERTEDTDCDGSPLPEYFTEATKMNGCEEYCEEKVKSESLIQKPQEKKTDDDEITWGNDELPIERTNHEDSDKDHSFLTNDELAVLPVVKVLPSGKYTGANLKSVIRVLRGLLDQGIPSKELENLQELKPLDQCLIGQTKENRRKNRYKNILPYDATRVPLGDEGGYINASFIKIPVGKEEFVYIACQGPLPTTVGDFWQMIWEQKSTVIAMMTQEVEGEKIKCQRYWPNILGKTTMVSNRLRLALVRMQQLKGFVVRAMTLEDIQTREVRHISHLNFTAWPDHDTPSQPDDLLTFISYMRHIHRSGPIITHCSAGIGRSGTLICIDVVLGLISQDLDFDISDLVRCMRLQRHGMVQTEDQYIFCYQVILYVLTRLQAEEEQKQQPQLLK

`CC(C)C[C@H](NC(=O)[C@H](CC(=O)O)NC(=O)[C@H](CO)NC(=O)[C@H](CCC(=O)O)NC(=O)CNC(=O)[C@H](Cc1ccc(O)cc1)NC(=O)[C@H](CC(C)C)NC(=O)[C@H](C)NC(=O)[C@H](CO)NC(=O)[C@H](CO)NC(=O)[C@H](Cc1ccccc1)NC(=O)[C@H](C)NC(=O)[C@H](C)NC(=O)[C@H](Cc1ccc(O)cc1)NC(=O)[C@H](CC(=O)O)NC(=O)[C@H](CC(C)C)NC(=O)[C@H](C)NC(=O)CNC(=O)[C@@H]1CCCN1C(=O)[C@@H](NC(=O)CCCC[C@@H]1SC[C@@H]2NC(=O)N[C@@H]21)C(C)C)C(=O)O` [a-actinin 2] (Biotin-VPGALDYAAFSSALYGESDL-OH; C-terminus assumed): the Kd in assay [1] (PDZ KIAA1634, PDZ Domain 5, read-out: Peptide Optimal Conc (non-zero value: Kd by titration of the PL peptide)) is 2000 nM.

Take `CC[C@H](C)[C@H](NC(=O)[C@H](CCC(N)=O)NC(=O)[C@@H](NC(=O)[C@H](Cc1c[nH]cn1)NC(=O)[C@H](CCC(N)=O)NC(=O)[C@H](CC(=O)O)NC(=O)[C@H](CCC(=O)O)NC(=O)[C@H](CC(=O)O)NC(=O)[C@H](Cc1ccccc1)NC(=O)[C@@H]1CCCN1C(=O)[C@H](CCC(=O)O)NC(=O)[C@H](CC(N)=O)NC(=O)[C@H](CCC(=O)O)NC(=O)[C@@H]1CCCN1C(=O)[C@H](CC(=O)O)NC(=O)[C@H](CO)NC(=O)[C@H](CC(=O)O)NC(=O)CCCC[C@@H]1SC[C@@H]2NC(=O)N[C@@H]21)[C@@H](C)O)C(=O)N[C@H](C(=O)N[C@@H](CCCCN)C(=O)N[C@H](C(=O)O)C(C)C)[C@@H](C)O` [PTEN]: the Kd in assay [2] (setting [3]) worked out at 300 nM.

Regarding `CC[C@H](C)[C@H](NC(=O)[C@H](CCCCN)NC(=O)[C@@H](NC(=O)[C@H](CO)NC(=O)[C@@H]1CCCN1C(=O)[C@H](Cc1ccccc1)NC(=O)[C@@H](NC(=O)[C@@H](NC(=O)[C@H](CCCNC(=N)N)NC(=O)[C@H](CCC(=O)O)NC(=O)[C@H](CC(C)C)NC(=O)[C@H](CC(C)C)NC(=O)[C@H](CC(C)C)NC(=O)[C@@H](NC(=O)CNC(=O)[C@@H](NC(=O)CCCC[C@@H]1SC[C@@H]2NC(=O)N[C@@H]21)C(C)C)[C@@H](C)O)C(C)C)[C@@H](C)CC)C(C)C)C(=O)N[C@@H](C)C(=O)N[C@H](C(=O)N[C@@H](CC(C)C)C(=O)N[C@H](C(=O)O)C(C)C)[C@@H](C)O` [Adenovirus E4 Type9], the Kd in assay [2] (PDZ PTPL-1, PDZ Domain 2, Protein Optimal Conc 5, read-out: Peptide Optimal Conc (Kd by titration of the PL peptide)) was 200 nM; in assay [1] (PDZ KIAA1634, PDZ Domain 2, Protein Optimal Conc 5, read-out: Peptide Optimal Conc (Kd by titration of the PL peptide)), 150 nM; in assay [1] (PDZ KIAA1634, PDZ Domain 4, Protein Optimal Conc 5, read-out: Peptide Optimal Conc (Kd by titration of the PL peptide)), 200 nM.

As to `CC[C@H](C)[C@H](NC(=O)[C@H](CC(=O)O)NC(=O)[C@H](CCC(=O)O)NC(=O)[C@H](CCCNC(=N)N)NC(=O)[C@@H](NC(=O)CCCC[C@@H]1SC[C@@H]2NC(=O)N[C@@H]21)[C@@H](C)O)C(=O)N[C@@H](Cc1ccc(O)cc1)C(=O)N[C@H](C(=O)N[C@@H](CC(N)=O)C(=O)N[C@@H](Cc1ccc(O)cc1)C(=O)N1CCC[C@H]1C(=O)N[C@H](C(=O)N[C@@H](Cc1ccccc1)C(=O)N[C@@H](CO)C(=O)N[C@@H](CCCNC(=N)N)C(=O)N[C@@H](CCCNC(=N)N)C(=O)N1CCC[C@H]1C(=O)N[C@@H](CCCCN)C(=O)N[C@H](C(=O)N[C@@H](CCCNC(=N)N)C(=O)N[C@H](C(=O)O)C(C)C)[C@@H](C)O)[C@@H](C)O)C(C)C` [DNAM-1] (Biotin-TREDIYVNYPTFSRRPKTRV-OH; C-terminus assumed), in assay [1] (Peptide Optimal Conc (Kd by titration of the PL peptide), PDZ KIAA1634, PDZ Domain 1), the Kd came out at 1000 nM.

`CC(C)C[C@H](NC(=O)CNC(=O)[C@@H](NC(=O)[C@H](CO)NC(=O)[C@H](CC(N)=O)NC(=O)[C@H](Cc1ccccc1)NC(=O)CNC(=O)[C@H](C)NC(=O)[C@H](C)NC(=O)[C@H](Cc1ccccc1)NC(=O)[C@@H](NC(=O)CCCC[C@@H]1SC[C@@H]2NC(=O)N[C@@H]21)[C@@H](C)O)[C@@H](C)O)C(=O)N1CCC[C@H]1C(=O)N[C@@H](Cc1c[nH]cn1)C(=O)N[C@@H](CO)C(=O)N[C@H](C(=O)N[C@H](C(=O)N[C@@H](CCCNC(=N)N)C(=O)N[C@H](C(=O)O)C(C)C)[C@@H](C)O)[C@@H](C)O` [Neuroligin] (Biotin-TFAAGFNSTGLPHSTTRV-OH; C-terminus assumed): in assay [1] (PDZ KIAA1634, PDZ Domain 1, read-out: Peptide Optimal Conc (Kd by titration of the PL peptide)), the Kd worked out at 100 nM.

Regarding `CC(C)C[C@H](NC(=O)[C@H](CC(C)C)NC(=O)[C@@H](NC(=O)[C@H](CC(=O)O)NC(=O)CCCC[C@@H]1SC[C@@H]2NC(=O)N[C@@H]21)[C@@H](C)O)C(=O)N[C@@H](CC(C)C)C(=O)N[C@H](C(=O)N[C@@H](CCC(=O)O)C(=O)N[C@@H](CC(N)=O)C(=O)N[C@@H](CCC(=O)O)C(=O)NCC(=O)N[C@@H](CC(=O)O)C(=O)N[C@@H](CCCCN)C(=O)N[C@H](C(=O)N[C@@H](CCC(=O)O)C(=O)N[C@@H](CCC(=O)O)C(=O)N[C@@H](CCC(N)=O)C(=O)N[C@H](C(=O)N[C@@H](CO)C(=O)N[C@@H](Cc1ccc(O)cc1)C(=O)N[C@H](C(=O)O)C(C)C)C(C)C)[C@@H](C)O)[C@@H](C)O` [5H2B_HUMAN] (Biotin-DTLLLTENEGDKTEEQVSYV-OH; C-terminus assumed), the Kd in assay [2] (setting [3]) worked out at 200 nM.

With `CC[C@H](C)[C@H](NC(=O)[C@H](CO)NC(=O)[C@@H](NC(=O)[C@H](Cc1ccccc1)NC(=O)[C@H](CO)NC(=O)CCCC[C@@H]1SC[C@@H]2NC(=O)N[C@@H]21)[C@@H](C)O)C(=O)N[C@@H](CC(C)C)C(=O)N[C@H](C(=O)N[C@@H](CS)C(=O)N[C@@H](Cc1c[nH]cn1)C(=O)N[C@@H](CCC(N)=O)C(=O)N[C@@H](CCCNC(=N)N)C(=O)N[C@@H](CCCNC(=N)N)C(=O)N[C@H](C(=O)N[C@@H](CCC(N)=O)C(=O)N[C@@H](CCCNC(=N)N)C(=O)N[C@@H](CCCCN)C(=O)N[C@@H](CCC(=O)O)C(=O)N[C@H](C(=O)N[C@H](C(=O)N[C@@H](C)C(=O)O)C(C)C)[C@@H](C)O)[C@@H](C)O)[C@@H](C)O` [GluR5-2 (rat)], the Kd in assay [1] (PDZ KIAA1634, PDZ Domain 1, titration of the PL peptide, read-out: Peptide Optimal Conc (Kd, dissociation constant)) is 150 nM.

Turning to `CC[C@H](C)[C@H](NC(=O)[C@H](Cc1ccc(O)cc1)NC(=O)[C@H](CC(C)C)NC(=O)[C@H](CCC(N)=O)NC(=O)[C@H](Cc1c[nH]cn1)NC(=O)[C@H](CO)NC(=O)[C@H](C)NC(=O)[C@H](CC(C)C)NC(=O)[C@@H](NC(=O)[C@H](CC(=O)O)NC(=O)[C@H](CCSC)NC(=O)[C@H](Cc1ccccc1)NC(=O)[C@@H]1CCCN1C(=O)[C@H](CCCNC(=N)N)NC(=O)[C@@H](NC(=O)[C@H](CC(C)C)NC(=O)[C@H](CC(N)=O)NC(=O)[C@H](CC(=O)O)NC(=O)[C@@H](NC(=O)[C@H](CO)NC(=O)CCCC[C@@H]1SC[C@@H]2NC(=O)N[C@@H]21)[C@@H](C)O)C(C)C)[C@@H](C)O)C(=O)O` [presenilin-2] (Biotin-STDNLVRPFMDTLASHQLYI-OH; C-terminus assumed), the Kd in assay [2] (PDZ PTPL-1, PDZ Domain 4, titration of the PL peptide, read-out: Peptide Optimal Conc (Kd, dissociation constant)) turned out to be 8000 nM.
